Here are results for nine compounds from ChEMBL document CHEMBL6153083, “Synthesis, Structural Modification, and Antismall Cell Lung Cancer Activity of 3-Arylisoquinolines with Dual Inhibitory Activity on Topoisomerase I and II” (J Med Chem, 2025).

Data set [1] has as its system NCI-H1048. The experiment in a line: Induction of early apoptosis in human NCI-H1048 cells incubated for 48 hrs by Annexin V-FITC/PI staining based flow cytometry. The data set is classed as functional, cell-based. The note with it: dose 1-8 µM.
In data set [2] the test system is NCI-H446. The data set is described as follows: Antitumor activity against human NCI-H446 cells xenografted in BALB/c nude mouse at 20 mg/kg, ip for 21 days relative to control. Type of data set: functional. The note with it: NCI-H446, 504 h, time 21 day, read-out: TGI.
Data set [3] deals with NCI-H1048. The experiment in a line: Antiproliferative activity against human NCI-H1048 cells incubated for 72 hrs. To be noted: NCI-H1048, 72 h. Type of data set: functional, cell-based.
In data set [4] the test system is NCI-H446. The experiment in a line: Induction of early apoptosis in human NCI-H446 cells incubated for 48 hrs by Annexin V-FITC/PI staining based flow cytometry. Type of data set: functional, cell-based. To be noted: dose 1-8 µM.
Data set [5] in a line: Toxicity in BALB/c nude mouse xenografted with human NCI-H446 cells assessed as body weight change at 20 mg/kg, ip for 21 days. Type of data set: organism-based. The note with it: in vivo, 504 h, time 21 day.
Data set [6] has as its system NCI-H446. The data set is described as follows: Antiproliferative activity against human NCI-H446 cells incubated for 72 hrs. To be noted: NCI-H446, 72 h. The data set is classed as functional, cell-based.
For data set [7], the system named is NCI-H446. The experiment in a line: Inhibition of cell invasion in human NCI-H446 cells incubated for 24 hrs by transwell assay. The data set is classed as functional, cell-based.
Another data set has as its system SHP77. The experiment in a line: Antiproliferative activity against human SHP77 cells incubated for 72 hrs. Type of data set: functional, cell-based. The note with it: SHP77, 72 h.
The nature of data set [8]: Antiproliferative activity against human L02 cells incubated for 72 hrs. Type of data set: toxicity, cell-based.
Data set [9] can be described thus: Antiproliferative activity against human BEAS-2B cells incubated for 72 hrs. The data set is classed as toxicity, cell-based.
A further data set concerns NCI-H209. The experiment in a line: Antiproliferative activity against human NCI-H209 cells incubated for 72 hrs. The data set is classed as functional, cell-based. The note with it: NCI-H209, 72 h.
Data set [10] is described as follows: Antiproliferative activity against human NCI-H196 cells incubated for 72 hrs. Type of data set: functional, cell-based. The note with it: NCI-H196, 72 h.
The test system of data set [11] is NCI-H1048. The data set is described as follows: Inhibition of cell invasion in human NCI-H1048 cells incubated for 24 hrs by transwell assay. The data set is classed as functional, cell-based.
The test system of another data set is NCI-H146. The experiment in a line: Antiproliferative activity against human NCI-H146 cells incubated for 72 hrs. Type of data set: functional, cell-based. To be noted: NCI-H146, 72 h.
The subject of the next data set is NCI-H82. The data set is described as follows: Antiproliferative activity against human NCI-H82 cells incubated for 72 hrs. To be noted: NCI-H82, 72 h. Type of data set: functional, cell-based.

Take `COc1cc([C@@H]2c3cc4c(cc3[C@@H](O[C@@H]3O[C@@H]5CO[C@@H](C)O[C@H]5[C@H](O)[C@H]3O)[C@H]3COC(=O)[C@H]23)OCO4)cc(OC)c1O` [ETOPOSIDE]: the values for the Activity entry (with NCI-H1048 [1]; in the data set on NCI-H446 [4]; in [5]) were “Not active; Exhibited Minimal Impact”, “Not active; Exhibited Minimal Impact” and “Toxic”, respectively. For the same compound, in the data set with NCI-H446 [2], the inhibition in vivo at 20 mg/kg came to 68.7%. In addition, the IC50 was 1.52 µM in the data set with NCI-H1048 [3]; 2.1 µM in the data set on NCI-H446 [6]; 26.3 µM in the data set with SHP77; over 100 µM in the data set on NCI-H209; 24.1 µM in data set [10]; 10.6 µM in the data set on NCI-H146. The compound further came in with a half-maximal inhibitory concentration (IC50) in the data set with NCI-H82 of 8.39 µM. The inhibition result in the data set with NCI-H446 [7] and in the data set with NCI-H1048 [11] was “Dose-dependent-effect” in each case. The IC50 at 72 h turned out to be 15.9 µM in data set [8] and 6.19 µM in data set [9].

For the compound `CC(C)(C)C1CCN(Cc2cc3c(cc2-c2cc4ccc5c(c4cn2)OCO5)OCO3)CC1`, the IC50 was 2.68 µM with NCI-H1048 [3]; 7.1 µM with NCI-H446 [6]; 8.55 µM in the data set with SHP77; over 100 µM in the data set with NCI-H209; 7.5 µM in data set [10]; 10.1 µM with NCI-H146. This compound also had an IC50 in the data set on NCI-H82 of 2.96 µM. Moreover, the IC50 at 72 h in data set [8] and in data set [9] was over 100 µM in each case.

With `CCCC1CCN(Cc2cc3c(cc2-c2cc4ccc5c(c4cn2)OCO5)OCO3)CC1`, the IC50 was over 100 µM with NCI-H1048 [3]; 14.5 µM with NCI-H446 [6]; 28.2 µM in the data set with SHP77; 64.1 µM in the data set with NCI-H209; 10.2 µM in [10]; 37 µM in the data set on NCI-H146. For the same compound, in the data set on NCI-H82, the IC50 is over 100 µM. In addition, the IC50 at 72 h is 84.2 µM in [8] and over 100 µM in data set [9].

Consider `CC1CCCN(Cc2cc3c(cc2-c2cc4ccc5c(c4cn2)OCO5)OCO3)C1` (configuration not stated), for which the IC50 amounted to 10 µM in the data set on NCI-H1048 [3]; 23.1 µM in the data set with NCI-H446 [6]; 17.9 µM in the data set on SHP77; 40.6 µM in the data set with NCI-H209; 27.4 µM in data set [10]; 31.4 µM in the data set on NCI-H146. Moreover, in the data set on NCI-H82, inhibition was half-maximal at 29.8 µM (IC50). Further, the IC50 at 72 h was found to be 43 µM in data set [8] and 14.3 µM in [9].

Take `CC(C)(C)C(=O)C1CCN(Cc2cc3c(cc2-c2cc4ccc5c(c4cn2)OCO5)OCO3)CC1`: the IC50 in the data set on NCI-H1048 [3] is over 100 µM; in the data set on NCI-H446 [6] it was 24.5 µM; in the data set with SHP77 it was over 100 µM; in the data set with NCI-H209, over 100 µM; in data set [10], over 100 µM; in the data set with NCI-H146 it was over 100 µM. Moreover, the IC50 with NCI-H82 is over 100 µM. Besides, the IC50 at 72 h in data set [8] and in data set [9] was over 100 µM throughout.

As for `CC1CCCCN1Cc1cc2c(cc1-c1cc3ccc4c(c3cn1)OCO4)OCO2` (configuration not stated), the half-inhibitory concentration (IC50) in the data set with NCI-H1048 [3] stood at 16.7 µM; in the data set with NCI-H446 [6] it was 14.4 µM; in the data set with SHP77 it was 40.4 µM; in the data set with NCI-H209, 49.6 µM; in data set [10], 37.5 µM; in the data set on NCI-H146, 39 µM. This compound had an IC50 with NCI-H82 of 38.6 µM. The results for the IC50 at 72 h in data set [8] and in data set [9] were 42.4 µM and 19.4 µM, respectively.

On to `c1c(CN2CC3(CCC3)C2)c(-c2cc3ccc4c(c3cn2)OCO4)cc2c1OCO2`, for which the IC50 in the data set with NCI-H1048 [3] was 30.5 µM; in the data set with NCI-H446 [6], 24.4 µM; in the data set on SHP77 it was 37.6 µM; in the data set with NCI-H209 it was 50.2 µM; in [10], 30.9 µM; with NCI-H146, over 100 µM. In the data set with NCI-H82, this compound showed an IC50 of 58.1 µM. Also, the figures for the IC50 at 72 h in data set [8] and in data set [9] were over 100 µM and 30.4 µM, respectively.

Take `CC(C)(O)C1CCN(Cc2cc3c(cc2-c2cc4ccc5c(c4cn2)OCO5)OCO3)CC1`: the IC50 in the data set with NCI-H1048 [3] was 56.1 µM; with NCI-H446 [6], 28.7 µM; in the data set with SHP77, 40.4 µM; with NCI-H209, 64.9 µM; in [10] it was 53 µM; in the data set on NCI-H146, over 100 µM. For the same compound, the IC50 with NCI-H82 turned out to be 67.4 µM. Besides, the 50% inhibitory concentration (IC50) at 72 h amounted to 38.2 µM in data set [8] and 30.1 µM in data set [9].

As to `FC1CCN(Cc2cc3c(cc2-c2cc4ccc5c(c4cn2)OCO5)OCO3)CC1`, the IC50 in the data set with NCI-H1048 [3] was over 100 µM; in the data set on NCI-H446 [6] it was 97.8 µM; with SHP77, over 100 µM; with NCI-H209 it was over 100 µM; in [10] it was over 100 µM; in the data set on NCI-H146, over 100 µM. Moreover, the half-inhibitory concentration (IC50) in the data set with NCI-H82 is over 100 µM. For the same compound, the 50% inhibitory concentration (IC50) at 72 h in data set [8] and in data set [9] was over 100 µM each time.
